# System: O2·‐ production in tissue homogenates
# Assay: O2·- production in organ homogenates by lucigenin-chemiluminescence, HFD mouse model
# Assay type: in vivo
# Conditions: HFD 16 weeks, apocynin 5 mmol/L in drinking water, vs HFD
# Experimental: Apocynin was supplied in drinking water (5 mmol/L) for the treatment group. Body weights were measured weekly. Mice were sacrificed at 11 months of age and organs were harvested for further experiments. ROS production was measured using tissue homogenates by three complementary techniques: lucigenin (5 µmol/L)‐chemiluminescence (Molecular Devices); DHE (2 µmol/L) fluorescence on brain tissue sections, and brain tissue lipid peroxidation by malondialdehyde (MDA) assay as described previously. ^5 The specificity of detection of O2·‐ was confirmed by adding tiron (10 mmol/L), a non‐enzymatic O2·‐ scavenger. The enzymatic sources of O2·‐ production were identified using inhibitors targeting nitric oxide synthase (L‐N^G‐Nitro arginine methyl ester, L‐NAME, 100 μmol/L), the mitochondrial complex‐1 enzymes (rotenone, 50 μmol/L), xanthine oxidase (oxypurinol, 250 μmol/L), flavo‐proteins (diphenyleneiodonium, DPI, 20 μmol/L), or superoxide dismutase (SOD) (200 U/mL). The DHE fluorescence was captured using a Nikon fluorescence microscope (Eclipse Ti2‐E). The fluorescence intensity was quantified from at least three random images per section with three sections/per sample. […] Body weights were measured weekly. […] The body weights were recorded and organs were harvested.
smiles,measurement,setting,value
"COc1cc(C(C)=O)ccc1O [Apocynin, 4‐hydroxy‐3‐methoxyacetophenone]","effect on HFD-induced ROS production / oxidative stress in brain, liver and heart",,significant reductions
same,"effect on HFD-induced ROS production / oxidative stress in brain, liver and heart",listed as apocynin,reduced significantly
